# “Also recorded” adds a separate entry of the source.
# Tests used:
# [1] = test system: SC14 (SW1710 derivative with ERCC2 P463L mutation); assay: In vitro drug sensitivity assay; assay type: cell-based; details: ERCC2-mutant SC14 line compared with SW1710
# Description: (§1) Bladder cancer cell lines were purchased from ATCC. The KE1 bladder cancer cell line is a derivative of KU19-19 in which an ERCC2 T484 mutation has been introduced by CRISPR/Cas9 gene editing as previously described (6). The MDA-MB-468 breast cancer cell line and its ERCC4-complemented derivative have been previously described (35). Small interfering RNAs (siRNAs) targeting specific NER genes as well as a non-targeting siRNA (siNTC) were purchased from Integrated DNA Technologies Inc. (Coralville, IA, USA; see Table 9 for sequences). Cells were seeded in 6-well plates and grown to 50% confluency. A transfection mixture containing siRNA diluted to a final concentration of 30 nM in Opti-MEM media containing Lipofectamine 3000 (Life Technologies; Carlsbad, CA) was then added to cells. After 48 hours, cells were trypsinized and re-aliquoted to separate wells and transfected with 15 nM siRNA for 24 hours immediately prior to viability assays performed as described below. […]
# (§2) Cells were seeded in either 96-well (5,000 cells/well) or 24-well (20,000 cells/well) plates. […] Plates were scanned using a luminescence microplate reader (BioTek). […]
# KU19-19 cells = assay: Irofulven sensitivity after siRNA depletion of NER genes; assay type: cell-based
# Description: as §1, §2
# [2] = test system: KE1 cells (NER-deficient); assay: Immunoblotting after irofulven treatment; assay type: cell-based
# Description: Cells were lysed with ice-cold RIPA buffer supplemented with protease and phosphatase inhibitors (Roche). Samples were then sonicated and protein concentrations were determined using the Bradford assay. Sample buffer (Bio-Rad) was added and samples were then denatured at 90° C. for 10 mins. Samples were then loaded in NuPAGE™ protein gels (Thermo Fisher Scientific) and run at 90V for 2-3 hours. The gels were then transferred to nitrocellulose membranes at 30V overnight. Membranes were blocked for 30 mins in 5% milk in TBS buffer. Sections of the membrane corresponding to the appropriate molecular weights were stained overnight in primary antibodies prepared in 1% milk in TBST: XPF (1:700, clone D3G8C rabbit mAB, Cell Signaling); cleaved caspase 3 (1:1000, clone D175, rabbit mAB, Cell Signaling); total and cleaved PARP (1:1000, rabbit mAB, Cell Signaling); phospho-H2AX Ser139 (1:1000, clone JBW301 mouse mAB, Millipore); β-tubulin (1:1000, mouse mAB, Santa Cruz Technologies); Rpb1 CTD (1:1000, clone 4H8 Mouse mAb, Cell Signaling). A Licor Odyssey Infrared Imaging System was used for signal detection using IRDYE-conjugated secondary antibodies (LI-COR Biosciences).
# Cells were lysed with ice-cold RIPA buffer supplemented with protease and phosphatase inhibitors (Roche). Samples were then sonicated and protein concentrations were determined using the Bradford assay. […]
# [3] = test system: non-tumor cell lines with a TC-NER or common NER pathway gene defect; details: cited from earlier work
# [4] = test system: MDA-MB-468 breast cancer cell line (NER deficient, ERCC4 silenced); assay: In vitro drug sensitivity assay, parental vs ERCC4-complemented line; assay type: cell-based; details: NER-deficient parental MDA-MB-468 compared with ERCC4-complemented counterpart
# Description: as §1, §2
compound,measurement,setting,value
CC1=C(CO)C2=C(C)C3(CC3)[C@@](C)(O)C(=O)C2=C1 [irofulven],drug sensitivity,[1],significantly increased sensitivity
same,irofulven sensitivity after gene depletion,KU19-19 cells; siRNA depletion of GG-NER gene DDB2,minimal impact
same,irofulven sensitivity after gene depletion,KU19-19 cells; siRNA depletion of TC-NER gene ERCC6 or common NER gene ERCC3,significantly higher irofulven sensitivity; also recorded: sufficient to increase irofulven sensitivity
same,RNA polymerase level (immunoblot),"[2]; following irofulven treatment, KE1",time-dependent loss
same,"phospho-H2AX (γH2AX), cleaved PARP and cleaved caspase-3 (immunoblot)",[2]; irofulven-treated NER-deficient cells,accumulation
same,toxicity to cells from patients with inactivating mutations in a TC-NER or common NER gene,[3],highly toxic
same,irofulven sensitivity,[4],significantly more sensitive; also recorded: dramatically higher irofulven sensitivity
